Source: PubChem BioAssay (NCI)
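Method: 48-hour compound exposure of cells in 96-well plates, five concentrations, linear interpolation of endpoints. GI50 marks 50% less growth. TGI: concentration producing complete growth inhibition.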

tested on: NCI-H522 lung; experiment: growth of human tumour cells (NCI), 48 h

Structure (SMILES)	TGI [µM]
O=C(CC(=O)N1N=C(c2ccccc2)C(N=Nc2ccc(Cl)cc2)C1=O)Nc1ccccc1Cl (configuration not stated)	> 100

tested on: UO-31 renal; experiment: growth of human tumour cells (NCI), 48 h

Structure (SMILES)	GI50 [µM]	TGI [µM]
CC(C)(C)OC(=O)N(CCCN(CCn1c2c(c3ccccc3c1=O)C(=O)c1ccccc1-2)C(=O)OC(C)(C)C)CCn1c2c(c3ccccc3c1=O)C(=O)c1ccccc1-2	> 50	> 50
CCCCCCCCCCCCCCCCOP(=O)(O)Oc1ccc(/C=C\c2ccc(OP(=O)(O)OCCCCCCCCCCCCCCCC)cc2)cc1		> 100
O=c1[nH]c(=O)n(C2CC(O)C(CS)O2)cc1F (configuration not stated)		> 100
CNC1C(=O)C(C)C(O)(C(CC(C)C(O)/C=C/C=C/CNC(=O)C(C)(C)C(O)\C(C)=C/C=C\C=C\Cc2cnc(C)o2)OC)C12C(=O)OC2COC (configuration not stated) (tested in a mixture with another compound)		67.3
CCN(CC)C(=O)C/C(C)=N/NC(=O)c1ccncc1		> 100
Cc1c2c(nn1-c1ccc(S(=O)(=O)/N=C3\SCC(=O)N3C(=O)c3ccccc3)cc1)-c1ccccc1CC2	67.4	> 100
CN(C)C(=S)/N=c1\ss/c(=N\C(=S)N(C)C)n1-c1ccc2c(c1)OCO2		> 100
COC(=O)C(=O)C(C(=O)C(=O)Nc1ccc(C)cc1C)c1nc2ccccc2[nH]c1=O (configuration not stated)		> 100
O=C(O)C(Sc1ccc(Cl)cc1)Sc1ccc(Cl)cc1		> 100
CC[C@H](C)[C@H](NC(=O)[C@H]1CCCCN1C)C(=O)N(C)[C@H](CCc1nc(C(=O)N[C@@H](Cc2ccccc2)C[C@H](C)C(=O)OC)cs1)C(C)C	1.78	13.7
Nc1c(-c2ccc(Br)cc2)[n+]([O-])c2ccccc2[n+]1[O-]		> 100
C#CC[C@]12CC(=O)CC[C@H]1CC(=O)C2		> 100
CNC=O.[O]=[Ge].[O]=[Ge].[O]=[Ge].[O]=[Ge][OH].[O]=[Ge][OH]		> 100
N#CCCN(c1ccc(/C=C2\N=C(c3ccc(Cl)cc3)OC2=O)cc1)S(=O)(=O)c1ccccc1		> 100
COc1ccc(C2CC(=O)c3c(OC)cc(OC)cc3O2)cc1 (configuration not stated)	> 100	> 100
COC(=O)C1=C(c2ccc3c(c2)OCO3)O[C@H](c2ccc3c(c2)OCO3)[C@H]1COC(C)=O		> 100
CC(C)=[CH][Sb]([Br])([CH]=C(C)C)([CH]=C(C)C)[CH]=C(C)C	35.4	> 100
CCOC(=O)[C@H]1Nc2ccc(C)cc2C2c3ccccc3CC21 (some centres not stated)		> 100

Structure (SMILES)	GI50 [µM]	TGI [µM]
COc1cc([N+](=O)[O-])ccc1NC(=O)C(F)(F)F		> 100
COc1cc(-c2c(C#N)c(N)n3c(nc4ccccc43)c2C#N)cc(Br)c1OC	4.13	> 100
N#CCCN(CCC#N)c1ccc(/C=C2\N=C(CN3C(=O)c4ccccc4C3=O)OC2=O)cc1		> 100
CSc1nc(NC2OC(COC(C)=O)C(OC(C)=O)C(OC(C)=O)C2OC(C)=O)c2c(OC(C)=O)c(C)c(=O)oc2n1 (configuration not stated)		> 100
O=C(O)C1C(C(=O)O)C(C(=O)O)C1C(=O)O (configuration not stated)		> 100
COc1ccc(C(=O)O)c(Cc2cccc3ccccc23)c1		> 100
CC#CC(=O)Nc1ccccc1CC(c1c[nH]c2ccccc12)c1c[nH]c2ccccc12		25.4
CN1C(NC(=O)c2ccc(Cl)nc2)=NS(=O)(=O)c2cc(Cl)ccc21	> 100	> 100
C[C@]12CC[C@@H]3c4ccc(Oc5nc(N6CC6)nc(N6CC6)n5)cc4CC[C@H]3[C@@H]1CCC2=O	2.68	13.2
N#Cc1cnsc1		> 100
CCOC(=O)NC(=O)c1cn(CCCOC(=O)NCCCCCCNC(=O)OCCCn2c(=O)c(C(=O)NC(=O)OCC)cn(C)c2=O)c(=O)n(C)c1=O		> 100
COc1ccc2cc(C(=O)/C=C/c3cccc(OC)c3OC)ccc2c1	17.5	31.3
CCCCn1c(-c2ccc(C(=O)O/N=C(\N)c3ccc(OC)cc3)cc2)nc(-c2ccccc2)c1-c1ccccc1	0.458	1.65
CC(C)=CC(=O)N1CCN(C(=O)C=C(C)C)CC1		> 100
CCCCC/C=C/C/C=C/CCCCCCCC1=NC(C)(C)CN1C(C)C	1.21	2.45
C[C@]12CC[C@@H]3c4ccc(O)cc4CC[C@H]3[C@@H]1CC[C@@H]2NS(=O)(=O)c1ccc(C(F)(F)F)cc1	1.6	3.43
CCc1cccc(C)c1NC(C)=O		> 100
O=C(CC(=O)N1N=C(c2ccccc2)C(N=Nc2ccc(Cl)cc2)C1=O)Nc1ccccc1Cl (configuration not stated)		78

tested on: SF-539 CNS; experiment: growth of human tumour cells (NCI), 48 h

Structure (SMILES)	GI50 [µM]	TGI [µM]
CC(C)(C)OC(=O)N(CCCN(CCn1c2c(c3ccccc3c1=O)C(=O)c1ccccc1-2)C(=O)OC(C)(C)C)CCn1c2c(c3ccccc3c1=O)C(=O)c1ccccc1-2	> 50	> 50
O=c1[nH]c(=O)n(C2CC(O)C(CS)O2)cc1F (configuration not stated)		> 90.2
